Reference: patent US10549006B2, “High-coverage, low odor malodor counteractant compounds and methods of use” (International Flavors & Fragrances Inc., priority 2014, dated 2020)

Key:
[1] = Percent Reduction of Malodor Intensity; conditions: 10% in water
Excerpt: (iii) Malodor counteracting effect of Compounds 1-6 (10% in water) was further evaluated and their respective “Percent Reduction of Malodor Intensity” was reported in the following: […]

[2] = Malodor counteracting effect, scale of 0 to 5; conditions: 10% in water; scale of 0 to 5, 0=none, 1=minimal effect, 5=the highest possible effect
Procedure: (ii) Malodor counteracting effect was evaluated using a scale of 0 to 5, where 0=none, 1=minimal effect and 5=the highest possible effect. High coverage of mold/mildew and sweat malodors by Compounds 1-6 (10% in water) was reported in the following: […]

SMILES	Percent Reduction of Malodor Intensity, Bathroom [1] [%]	Percent Reduction of Malodor Intensity, Mold/Mildew [1] [%]	Percent Reduction of Malodor Intensity, Smoke [1] [%]	Percent Reduction of Malodor Intensity, Sweat [1] [%]	Malodor counteracting effect, Mold/Mildew [2]	Malodor counteracting effect, Sweat [2]
COC1CCC(C(C)C)CC1 (stereo not drawn) [Compound 1, 1-methoxy-4-(methylethyl)-cyclohexane]	92	88	84	83	4.62	4.51
CCOC1C(C)CCCC1C (stereo not drawn) [Compound 2, 2-ethoxy-1,3-dimethyl-cyclohexane]	90	79	87	90	4.44	4.56
CC(C)CC1OC(C)CCC1C(C)CC=O (stereo not drawn) [Compound 3, 3-[6-methyl-2-(2-methylpropyl)tetrahydro-2H-pyran-3-yl]butanal]	85	81	82	86	4.08	4.15
CCCCCCOC1CCC(C)(C)O1 (stereo not drawn) [Compound 4, 5-hexyloxy-2,2-dimethyl-tetrahydro-furan]	83	74	76	79	4.27	4.53
CC(=O)C(C)C(C)C(C)C (stereo not drawn) [Compound 6, 3,4,5-trimethyl-hexan-2-one]	87	90	84	83	4.04	4.30
CC(C)C(C)C(C)C(C)O (stereo not drawn) [Compound 5, 3,4,5-trimethyl-hexan-2-ol]	92	80	83	85	4.22	4.47
